According to ChEMBL document CHEMBL1140238, “Synthesis of selective SRPK-1 inhibitors: novel tricyclic quinoxaline derivatives” (Bioorg Med Chem Lett, 2005):

Experiments:
[1] = Inhibitory activity against Platelet-derived growth factor receptor kinase
[2] = target: Mitogen-activated protein kinase 8 (Homo sapiens) (UniProt P45983); assay: In vitro percent inhibition of c-Jun N-terminal kinase 1-alpha 1 at 10 uM concentration of compound dissolved in 100% DMSO using 5''-[gamma-33P]-triphosphate
[3] = In vitro percent inhibition of Cyclin-dependent kinase 2-cyclin A at 10 uM concentration of compound dissolved in 100% DMSO using 5''-[gamma-33P]-triphosphate
[4] = target: Ribosomal protein S6 kinase (P70S6K) (Homo sapiens) (UniProt Q9UBS0+P23443); assay: In vitro percent inhibition of Ribosomal protein S6 kinase at 10 uM concentration of compound dissolved in 100% DMSO using 5''-[gamma-33P]-triphosphate; type: protein-complex assay
[5] = target: RAF proto-oncogene serine/threonine-protein kinase (Homo sapiens) (UniProt P04049); assay: In vitro percent inhibition of RAF proto-oncogene serine/threonine-protein kinase at 10 uM concentration of compound dissolved in 100% DMSO using 5''-[gamma-33P]-triphosphate
RAF proto-oncogene serine/threonine-protein kinase (Homo sapiens), sequence (P04049 whole entry): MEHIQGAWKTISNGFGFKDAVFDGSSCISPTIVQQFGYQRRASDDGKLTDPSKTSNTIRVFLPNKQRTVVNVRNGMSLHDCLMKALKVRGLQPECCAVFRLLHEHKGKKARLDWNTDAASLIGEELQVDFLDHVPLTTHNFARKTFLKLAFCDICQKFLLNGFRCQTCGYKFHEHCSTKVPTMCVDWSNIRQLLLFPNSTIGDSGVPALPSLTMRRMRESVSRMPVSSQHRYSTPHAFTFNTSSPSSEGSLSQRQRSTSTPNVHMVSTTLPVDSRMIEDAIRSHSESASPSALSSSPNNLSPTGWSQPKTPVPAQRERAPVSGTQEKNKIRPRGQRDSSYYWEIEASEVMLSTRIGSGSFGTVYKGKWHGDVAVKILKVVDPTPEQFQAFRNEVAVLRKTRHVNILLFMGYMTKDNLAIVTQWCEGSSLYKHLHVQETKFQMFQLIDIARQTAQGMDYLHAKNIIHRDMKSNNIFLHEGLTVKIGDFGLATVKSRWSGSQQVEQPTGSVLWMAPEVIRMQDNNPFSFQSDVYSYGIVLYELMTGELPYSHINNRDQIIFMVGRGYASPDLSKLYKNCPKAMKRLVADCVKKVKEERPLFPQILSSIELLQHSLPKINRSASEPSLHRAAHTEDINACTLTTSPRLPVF

[6] = target: Platelet-derived growth factor receptor beta (Homo sapiens) (UniProt P09619); assay: In vitro percent inhibition of Platelet-derived growth factor receptor, beta polypeptide at 10 uM concentration of compound dissolved in 100% DMSO using 5''-[gamma-33P]-triphosphate
Platelet-derived growth factor receptor beta (Homo sapiens), sequence (P09619 whole entry): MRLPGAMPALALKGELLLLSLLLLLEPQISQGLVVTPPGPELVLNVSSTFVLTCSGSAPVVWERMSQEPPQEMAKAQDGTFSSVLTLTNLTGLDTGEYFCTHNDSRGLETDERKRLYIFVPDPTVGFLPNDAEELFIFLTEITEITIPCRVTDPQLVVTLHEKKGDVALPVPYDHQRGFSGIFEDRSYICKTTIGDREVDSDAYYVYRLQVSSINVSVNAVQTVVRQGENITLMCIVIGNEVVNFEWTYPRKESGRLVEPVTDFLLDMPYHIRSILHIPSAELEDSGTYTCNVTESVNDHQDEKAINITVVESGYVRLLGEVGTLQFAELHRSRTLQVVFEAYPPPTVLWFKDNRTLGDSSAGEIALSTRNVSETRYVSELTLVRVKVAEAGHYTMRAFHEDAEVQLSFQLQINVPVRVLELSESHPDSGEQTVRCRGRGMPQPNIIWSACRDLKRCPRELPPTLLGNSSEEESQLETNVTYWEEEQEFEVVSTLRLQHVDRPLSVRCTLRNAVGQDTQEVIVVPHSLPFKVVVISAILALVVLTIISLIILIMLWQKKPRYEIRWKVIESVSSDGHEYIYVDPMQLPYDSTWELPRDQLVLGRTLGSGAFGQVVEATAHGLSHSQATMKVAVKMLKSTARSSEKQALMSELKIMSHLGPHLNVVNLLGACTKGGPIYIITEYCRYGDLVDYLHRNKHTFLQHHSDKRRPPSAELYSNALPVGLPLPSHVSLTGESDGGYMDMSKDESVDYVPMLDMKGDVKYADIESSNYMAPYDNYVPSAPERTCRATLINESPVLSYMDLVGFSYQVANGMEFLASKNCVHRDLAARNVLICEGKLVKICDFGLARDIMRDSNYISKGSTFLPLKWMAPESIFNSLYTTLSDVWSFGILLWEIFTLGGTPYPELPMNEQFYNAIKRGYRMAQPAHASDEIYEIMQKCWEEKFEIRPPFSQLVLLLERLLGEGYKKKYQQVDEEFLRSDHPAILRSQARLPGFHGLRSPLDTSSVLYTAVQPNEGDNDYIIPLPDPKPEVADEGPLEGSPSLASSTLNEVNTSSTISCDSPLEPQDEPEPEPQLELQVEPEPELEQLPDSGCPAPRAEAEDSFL

[7] = target: Mast/stem cell growth factor receptor Kit (Homo sapiens) (UniProt P10721); assay: In vitro percent inhibition of v-kit Hardy-Zuckerman 4 feline sarcoma viral oncogene homolog at 10 uM concentration of compound dissolved in 100% DMSO using 5''-[gamma-33P]-triphosphate
Mast/stem cell growth factor receptor Kit (Homo sapiens), sequence (P10721 whole entry): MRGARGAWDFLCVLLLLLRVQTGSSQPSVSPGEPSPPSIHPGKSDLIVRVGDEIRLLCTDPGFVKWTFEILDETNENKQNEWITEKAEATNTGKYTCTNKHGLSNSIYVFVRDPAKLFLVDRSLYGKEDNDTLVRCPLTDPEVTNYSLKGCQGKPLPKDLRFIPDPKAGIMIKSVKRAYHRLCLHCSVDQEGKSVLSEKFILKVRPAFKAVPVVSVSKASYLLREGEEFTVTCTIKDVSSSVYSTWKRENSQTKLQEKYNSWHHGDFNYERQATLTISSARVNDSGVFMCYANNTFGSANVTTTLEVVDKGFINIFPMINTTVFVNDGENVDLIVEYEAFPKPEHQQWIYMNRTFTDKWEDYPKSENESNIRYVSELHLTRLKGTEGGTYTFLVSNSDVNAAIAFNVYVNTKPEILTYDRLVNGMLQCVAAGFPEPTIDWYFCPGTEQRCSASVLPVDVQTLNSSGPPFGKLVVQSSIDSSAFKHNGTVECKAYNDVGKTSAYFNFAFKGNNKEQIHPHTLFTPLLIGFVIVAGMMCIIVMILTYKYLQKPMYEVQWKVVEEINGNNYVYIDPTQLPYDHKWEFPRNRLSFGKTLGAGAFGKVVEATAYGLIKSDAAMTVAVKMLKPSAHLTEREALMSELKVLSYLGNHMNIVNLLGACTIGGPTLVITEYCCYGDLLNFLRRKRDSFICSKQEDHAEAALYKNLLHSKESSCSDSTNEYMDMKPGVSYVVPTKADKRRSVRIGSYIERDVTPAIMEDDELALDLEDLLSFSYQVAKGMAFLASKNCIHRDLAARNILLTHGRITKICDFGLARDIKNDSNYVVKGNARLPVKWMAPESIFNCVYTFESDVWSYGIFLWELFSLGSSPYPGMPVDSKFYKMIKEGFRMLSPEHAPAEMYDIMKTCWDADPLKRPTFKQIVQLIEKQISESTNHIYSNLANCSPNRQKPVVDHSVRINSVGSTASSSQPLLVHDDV

[8] = target: Insulin receptor (Homo sapiens) (UniProt P06213); assay: In vitro percent inhibition of Insulin receptor at 10 uM concentration of compound dissolved in 100% DMSO using 5''-[gamma-33P]-triphosphate
[9] = target: Hepatocyte growth factor receptor (Homo sapiens) (UniProt P08581); assay: In vitro percent inhibition of Met proto-oncogene tyrosine kinase at 10 uM concentration of compound dissolved in 100% DMSO using 5''-[gamma-33P]-triphosphate
[10] = target: Mitogen-activated protein kinase 3 (Homo sapiens) (UniProt P27361); assay: In vitro percent inhibition of Mitogen-activated protein kinase 3 at 10 uM concentration of compound dissolved in 100% DMSO using 5''-[gamma-33P]-triphosphate
[11] = target: Tyrosine-protein kinase Lck (Homo sapiens) (UniProt P06239); assay: In vitro percent inhibition of p56 Lck tyrosine kinase at 10 uM concentration of compound dissolved in 100% DMSO using 5''-[gamma-33P]-triphosphate
[12] = target: Rho-associated protein kinase 2 (Homo sapiens) (UniProt O75116); assay: In vitro percent inhibition of Protein kinase ROCK2 at 10 uM concentration of compound dissolved in 100% DMSO using 5''-[gamma-33P]-triphosphate
[13] = target: Casein kinase I isoform alpha (Homo sapiens) (UniProt P48729); assay: In vitro percent inhibition of Casein kinase 1 alpha at 10 uM concentration of compound dissolved in 100% DMSO using 5''-[gamma-33P]-triphosphate
Casein kinase I isoform alpha (Homo sapiens), sequence (P48729 2-337 limits assumed): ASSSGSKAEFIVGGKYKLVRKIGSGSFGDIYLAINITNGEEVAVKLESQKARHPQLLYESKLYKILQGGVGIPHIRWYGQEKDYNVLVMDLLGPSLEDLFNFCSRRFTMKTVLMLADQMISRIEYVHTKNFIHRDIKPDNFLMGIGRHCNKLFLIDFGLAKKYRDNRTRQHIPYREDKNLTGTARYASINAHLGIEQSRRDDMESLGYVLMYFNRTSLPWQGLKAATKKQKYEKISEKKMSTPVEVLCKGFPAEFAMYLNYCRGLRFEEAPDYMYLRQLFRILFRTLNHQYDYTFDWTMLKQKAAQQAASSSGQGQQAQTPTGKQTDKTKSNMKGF

[14] = target: T1, Inhibitor of nuclear factor kappa-B kinase subunit beta (Homo sapiens) (UniProt O14920); assay: In vitro percent inhibition of I-kappa-B-kinase beta at 10 uM concentration of compound dissolved in 100% DMSO using 5''-[gamma-33P]-triphosphate
T1 sequence (whole entry): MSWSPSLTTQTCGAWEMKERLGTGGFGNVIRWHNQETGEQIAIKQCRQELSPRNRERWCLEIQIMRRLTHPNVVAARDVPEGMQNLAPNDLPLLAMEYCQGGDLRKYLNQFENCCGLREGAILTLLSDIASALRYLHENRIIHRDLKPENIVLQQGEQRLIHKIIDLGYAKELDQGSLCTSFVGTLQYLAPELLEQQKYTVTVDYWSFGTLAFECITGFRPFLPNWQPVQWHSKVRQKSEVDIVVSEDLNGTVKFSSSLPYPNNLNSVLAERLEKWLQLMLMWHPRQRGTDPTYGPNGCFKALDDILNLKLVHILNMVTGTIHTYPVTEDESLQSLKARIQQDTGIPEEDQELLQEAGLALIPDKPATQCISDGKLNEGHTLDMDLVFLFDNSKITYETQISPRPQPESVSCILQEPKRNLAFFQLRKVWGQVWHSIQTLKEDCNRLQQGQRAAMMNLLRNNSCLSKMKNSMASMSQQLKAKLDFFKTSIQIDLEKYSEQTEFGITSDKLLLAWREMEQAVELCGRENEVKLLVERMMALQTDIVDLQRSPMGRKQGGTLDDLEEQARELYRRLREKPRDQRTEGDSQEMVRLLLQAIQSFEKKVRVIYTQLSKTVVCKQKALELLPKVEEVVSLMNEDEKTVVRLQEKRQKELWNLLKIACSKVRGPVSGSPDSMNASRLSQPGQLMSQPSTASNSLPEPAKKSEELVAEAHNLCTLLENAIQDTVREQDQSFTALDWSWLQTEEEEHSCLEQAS

[15] = In vitro percent inhibition of Ribosomal S6 kinase 1 at 10 uM concentration of compound dissolved in 100% DMSO using 5''-[gamma-33P]-triphosphate
[16] = target: Proto-oncogene tyrosine-protein kinase Src (Homo sapiens) (UniProt P12931); assay: In vitro percent inhibition of c-Src tyrosine kinase at 10 uM concentration of compound dissolved in 100% DMSO using 5''-[gamma-33P]-triphosphate
[17] = target: T2, Tyrosine-protein kinase transforming protein Abl (Abelson murine leukemia virus) (UniProt P00521); assay: In vitro percent inhibition of v-Abl tyrosine kinase at 10 uM concentration of compound dissolved in 100% DMSO using 5''-[gamma-33P]-triphosphate
T2 sequence (whole entry): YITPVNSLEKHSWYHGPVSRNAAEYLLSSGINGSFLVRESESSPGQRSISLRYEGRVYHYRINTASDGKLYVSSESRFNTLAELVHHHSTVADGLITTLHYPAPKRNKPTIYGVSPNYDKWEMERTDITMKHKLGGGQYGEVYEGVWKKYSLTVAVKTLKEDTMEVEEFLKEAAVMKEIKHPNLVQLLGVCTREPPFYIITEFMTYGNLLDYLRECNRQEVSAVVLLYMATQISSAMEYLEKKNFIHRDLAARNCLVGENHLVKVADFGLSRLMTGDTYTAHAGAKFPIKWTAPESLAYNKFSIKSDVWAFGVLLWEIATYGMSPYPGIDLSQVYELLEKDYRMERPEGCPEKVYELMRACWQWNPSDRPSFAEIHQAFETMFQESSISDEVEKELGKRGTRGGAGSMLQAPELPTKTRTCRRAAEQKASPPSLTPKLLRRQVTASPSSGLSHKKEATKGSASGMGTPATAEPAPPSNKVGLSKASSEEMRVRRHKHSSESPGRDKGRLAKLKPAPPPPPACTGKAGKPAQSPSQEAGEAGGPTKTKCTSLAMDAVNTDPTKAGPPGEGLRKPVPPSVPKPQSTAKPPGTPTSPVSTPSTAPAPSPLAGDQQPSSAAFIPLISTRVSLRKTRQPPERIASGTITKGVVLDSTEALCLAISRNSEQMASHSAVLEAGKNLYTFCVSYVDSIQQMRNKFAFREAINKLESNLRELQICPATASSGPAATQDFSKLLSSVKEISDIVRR

[18] = Partition coefficient (logP); type: physicochemical; details: octanol/water
[19] = target: Epidermal growth factor receptor (Homo sapiens) (UniProt P00533); details: 10 uM
Epidermal growth factor receptor (Homo sapiens), sequence (P00533 whole entry): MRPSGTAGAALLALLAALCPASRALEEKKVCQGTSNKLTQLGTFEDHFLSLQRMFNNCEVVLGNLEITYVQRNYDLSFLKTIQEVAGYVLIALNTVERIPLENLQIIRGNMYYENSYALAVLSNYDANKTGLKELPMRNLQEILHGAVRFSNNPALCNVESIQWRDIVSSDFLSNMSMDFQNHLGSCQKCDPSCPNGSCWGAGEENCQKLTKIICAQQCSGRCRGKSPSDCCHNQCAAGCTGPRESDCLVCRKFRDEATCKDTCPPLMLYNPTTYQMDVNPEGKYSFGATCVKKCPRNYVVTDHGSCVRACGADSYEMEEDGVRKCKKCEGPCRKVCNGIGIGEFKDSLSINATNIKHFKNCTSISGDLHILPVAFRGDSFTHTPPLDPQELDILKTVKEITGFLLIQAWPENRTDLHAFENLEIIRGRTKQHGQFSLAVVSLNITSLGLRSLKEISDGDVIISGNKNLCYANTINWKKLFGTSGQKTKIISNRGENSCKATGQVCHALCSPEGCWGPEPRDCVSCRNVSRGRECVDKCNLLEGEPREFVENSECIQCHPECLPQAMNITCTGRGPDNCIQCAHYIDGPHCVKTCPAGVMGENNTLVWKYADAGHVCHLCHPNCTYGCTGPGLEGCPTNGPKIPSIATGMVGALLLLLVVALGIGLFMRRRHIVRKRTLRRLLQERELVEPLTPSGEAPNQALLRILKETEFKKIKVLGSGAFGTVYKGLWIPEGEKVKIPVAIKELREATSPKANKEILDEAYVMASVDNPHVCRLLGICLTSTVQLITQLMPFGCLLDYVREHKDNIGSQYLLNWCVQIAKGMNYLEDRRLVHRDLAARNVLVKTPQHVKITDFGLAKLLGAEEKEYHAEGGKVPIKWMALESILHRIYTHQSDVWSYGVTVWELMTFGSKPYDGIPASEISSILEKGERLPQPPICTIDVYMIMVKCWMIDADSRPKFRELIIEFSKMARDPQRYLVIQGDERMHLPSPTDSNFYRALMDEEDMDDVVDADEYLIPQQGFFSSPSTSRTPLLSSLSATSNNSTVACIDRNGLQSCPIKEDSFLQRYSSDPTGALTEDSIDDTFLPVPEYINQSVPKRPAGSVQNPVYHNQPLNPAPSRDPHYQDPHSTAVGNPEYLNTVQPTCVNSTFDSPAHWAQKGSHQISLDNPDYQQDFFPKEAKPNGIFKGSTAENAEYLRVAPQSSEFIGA

SRPK1 (Homo sapiens) = assay: In vitro inhibition of SR protein kinase 1 by compound dissolved in 100% DMSO using 5''-[gamma-33P]-triphosphate; n.a. - not active

Mitogen-activated protein kinase 8 (Homo sapiens), sequence (P45983 whole entry): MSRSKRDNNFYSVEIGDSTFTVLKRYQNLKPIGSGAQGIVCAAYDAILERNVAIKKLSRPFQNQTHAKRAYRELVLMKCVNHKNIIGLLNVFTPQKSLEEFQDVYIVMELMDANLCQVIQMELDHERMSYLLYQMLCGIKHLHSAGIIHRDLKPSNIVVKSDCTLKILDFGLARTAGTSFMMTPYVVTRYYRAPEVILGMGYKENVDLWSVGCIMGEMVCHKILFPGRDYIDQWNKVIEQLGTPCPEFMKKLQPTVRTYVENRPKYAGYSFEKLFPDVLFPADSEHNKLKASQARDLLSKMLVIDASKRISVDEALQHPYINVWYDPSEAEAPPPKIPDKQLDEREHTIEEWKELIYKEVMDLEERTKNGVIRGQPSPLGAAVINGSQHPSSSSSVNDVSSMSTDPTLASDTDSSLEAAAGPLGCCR

Compound | IC50 [1] | inhibition [2] | inhibition [3] | inhibition [4] | inhibition [5] | inhibition [6] | inhibition [7] | inhibition [8] | inhibition [9] | inhibition [10] | inhibition [11] | inhibition [12] | inhibition [13] | inhibition [14] | inhibition [15] | inhibition [16] | inhibition [17] | logP [18] | inhibition [19] | IC50 (SRPK1 (Homo sapiens))
c1ccc(-c2cnc3cc4ccccc4cc3n2)cc1 | 0.9 µM |  |  |  |  |  |  |  |  |  |  |  |  |  |  |  |  |  |  | 
c1csc(-c2nc3cc4c(cc3nc2-c2cccs2)OCCCO4)c1 |  | 15% | -7% | 2% | -5% | 24% | 22% | 34% | 27% | 21% | 39% | 32% | -5% | 22% | 17% | 75% | 10% | 5 | 26% | Not Active
